# Patent US10626126B2, “Compounds” (Pulmocide Limited, priority 2016, dated 2020)
# Entries after “also recorded” stand apart in the source; their conditions may differ.
# Experiments:
# RSV A2 strain = experiment: RSV A2 induced CPE in HEp2 cells; assay type: cell-based; conditions: human respiratory syncytial virus; for IC50: HEp-2, 120 h, 5 days; for inhibition at 0.01 µg/mL: HEp-2, at 0.01 μg/mL
# Experimental: (§1) HEp2 cells were seeded (10^3/well/50 μL) in 384-well plates (Catalogue number 353962, BD Falcon, Oxford, UK) in 5% FBS-DMEM (containing 2 mM L-glutamine and 1 mM sodium pyruvate) one day before infection. […] Simultaneously, test compounds (0.5 μL DMSO solution) were added to 100 μL of HEp2 cell culture with virus solution to provide a final DMSO solution of 0.5%. […] Sigma-Aldrich, Dorset, UK) was added to each well and the plate incubated for a further 6 hr (37° C./5% CO2). The fluorescence of each well [545 nm (excitation)/590 nm (emission)] was determined using a multi-scanner (Clariostar: BMG, Buckinghamshire, UK). The percentage inhibition for each well was calculated and the IC50, IC75 and IC90 values were calculated from the concentration-response curve generated for each test compound.
# RSV A2 [1] = experiment: Virus titre in air-liquid interface (ALI) cultured bronchial epithelial cells; conditions: for Virus titre in apical wash, geometric mean: late intervention (days 3-7), 0.1 mg/mL; for inhibition of virus titre in ALI culture (in words): late stage intervention
# Experimental: ALI cultured human bronchial epithelial cells were sourced from Epithelix Sarl (Geneva, Switzerland) and maintained by changing the basal media every 3-4 days, whilst the apical surface was washed once weekly with PBS. On day 0, the apical surface of each well was washed once with sterile PBS (300 μL) and the inserts transferred to new 24-well plates containing fresh MucilAir culture medium (780 μL; EP04MM). RSV A2 (50 μL; diluted in MucilAir culture medium to give a final MOI of 0.01) was added to cells for one hr (37° C./5% CO2). For the purposes of standardizing MOI calculations, each MucilAir insert was estimated to contain 2×10^5 apical facing cells per well. Virus inoculum was removed with a pipette and inserts were washed twice with sterile PBS (300 μL).
# Sampling was conducted by adding sterile PBS (300 μL) to the apical surface of each well for 5 min. The apical sample was then removed and transferred to tubes containing 50% sucrose dissolved in PBS (100 μL) before being stored at −80° C. This harvesting procedure was repeated daily beginning on day 0 and concluding on day 10.
# The test compound (50 μL in 0.5% DMSO/PBS) was added to the apical surface and incubated (37° C./5% CO2) for 1 hr before being removed. Vehicle treatments (0.5% DMSO/PBS) were performed on the corresponding apical surfaces to ensure each well received the same number of manipulations. On day 5, the basal media was removed from each well and replenished with fresh MucilAir culture media as a necessary maintenance step for ALI culture cells.
# Virus titre was quantified by plaque assay. HEp2 cells were grown in 24-well plates (Corning) for 48 hr prior to infection in DMEM containing 10% FBS until they attained 100% confluency.
# Collected samples were thawed at RT and ten-fold serial dilutions were prepared in serum-free DMEM. The growth medium from HEp2 cells was aspirated and replaced with 300 μL of serially diluted virus collections and left to infect at 37° C./5% CO2 for 4 hr. The infectious media was aspirated and replaced with 1 mL Plaque Assay Overlay (0.3% Avicel RC-591 (FMC Biopolymer UK, Girvan, Scotland)) in MEM, supplemented to a final concentration of 2% FCS), and left for 7 days at 37° C./5% CO2. Cells were fixed with ice-cold methanol for 10 min, then removed and cells subjected to two washes with sterile PBS. Cells were then stained with crystal violet solution (200 μL 0.1%, in distilled water) for 1 hr. Crystal violet solution was removed and cells rinsed with water before plaques were counted and virus titre enumerated.
# [2] = Cell viability: resazurin assay; assay type: cell-based; conditions: human, HEp2 cells
# Experimental: HEp2 cells were seeded in 384-well plates (10^3/well/50 μL; BD Falcon Ref 353962) in FBS DMEM (5%, containing 2 mM L-glutamine and 1 mM sodium pyruvate) one day before experimentation. Serum-free DMEM (50 μL) was added to test wells, while for control wells the media was removed and sterile water (100 μL) added. Test compounds (0.5 μL DMSO solution) were added to give a final DMSO concentration of 0.5%. HEp2 cells were incubated with each test compound for 5 days (37° C./5% CO2 in 2.5% FBS) and then resazurin stock solution (5 μL; 0.03%) was added to each well and the plate incubated for a further 6 hr (37° C./5% CO2). The fluorescence of each well at 545 nm (excitation) and 590 nm (emission) was determined using a multi-scanner (Clariostar: BMG Labtech). The percentage loss of cell viability was calculated for each well relative to vehicle (0.5% DMSO) treatment. Note that any apparent increase in cell viability associated with test compound treatment relative to vehicle is consequently tabulated as a negative percentage. Where appropriate, a CC50 value was calculated from the concentration-response curve generated from the concentration-response curve for each test compound.
# RSV B Washington strain = experiment: RSV B induced CPE in HEp2 cells; assay type: cell-based; conditions: human respiratory syncytial virus; for IC50: HEp-2, 144 h, 6 days; for inhibition at 1 µg/mL: HEp-2, at 1 μg/mL
# Experimental: as §1
# hRSV/A/Long = experiment: RSV infection in cotton rats: viral titre in lung (plaque assay); conditions: for Virus titre in lung, Geometric Mean / Virus titre in lung, Median: day 4 post infection
# Experimental: (§2) Male Sigmodon hispidus cotton rats between 6 and 8 weeks of age were infected with hRSV/A/Long (ATCC, Manassas, Va.; 10^5 pfu) in a volume of 0.1 mL of sucrose stabilizing media. Test compounds were dissolved in 100% DMSO (at 3.3, 10, 33 and 100 mg/mL), then diluted (1:10 in isotonic saline to achieve 10% DMSO in all treatments) and sonicated to produce suspensions which were administered intranasally (50 μL) by pipette 4 hr before infection (on day 0), and then on days 1, 2 and 3 post infection. Four days after RSV challenge, the animals were euthanised and the lungs removed.
# The supernatants of lung homogenates were diluted 1:10 and 1:100 in Eagle (E)-MEM. Confluent HEp2 monolayers in 24-well plates were infected in duplicate (50 μL of sample per well) starting with undiluted (neat) samples followed by diluted homogenates. After incubation for 1 hr (37° C./5% CO2) wells were overlaid with 0.75% methylcellulose medium and plates replaced in the 37° C. incubator. After incubation (for 4 days), the overlay was removed, the cells fixed with 0.1% crystal violet stain (for 1 hr) and then rinsed and air-dried. Plaques were counted and viral titers were expressed as plaque forming units per gram (pfu.g^−1) of tissue.
# RSV NS-1 gene = experiment: RSV infection in cotton rats: RSV NS-1 gene expression in lung (qRT-PCR); assay type: in vivo, Sigmodon hispidus cotton rats; conditions: intranasal
# RANTES gene = experiment: RSV infection in cotton rats: RANTES gene expression in lung (qRT-PCR); conditions: intranasal
# Experimental: as §2
# Total RNA was also extracted from homogenized lung tissue (RNeasy purification kit; Qiagen) and a sample (1 μg) used to prepare cDNA using QuantiTect Reverse Transcription Kit (Qiagen). For real-time PCR reactions (RSV NS-1 and RANTES genes) the QuantiFast SYBR® Green PCR Kit (Qiagen) was used in a final volume of 25 μL, with final primer concentrations of 0.5 μM. Amplifications were performed on a Bio-Rad iCycler for 1 cycle of 950C for 3 min, followed by 40 cycles of 950C for 10 sec, 600C for 10 sec, and 720C for 15 sec. Baseline cycles and cycle threshold (Ct) were calculated by the iQ5 software in the PCR Base Line Subtracted Curve Fit mode.
# The standard curves were developed using the serially diluted cDNA sample most enriched in the transcript of interest (e.g., lungs from day 4 post-primary RSV infection). The Ct values were plotted against log10 cDNA dilution factor and the curves were used to convert the Ct values obtained for different samples to relative expression units, which were then normalized against the level of R-actin mRNA (“housekeeping gene”) expressed in the corresponding sample. The mRNA levels were expressed as the geometric mean±SEM for all animals in a group.
# RSV A2 [3] = experiment: RSV F protein expression in BEAS2B bronchial epithelial cells; assay type: cell-based; conditions: human respiratory syncytial virus, BEAS-2B, n=2
# Experimental: An early event which follows the infection of epithelial cells by RSV is the expression of RSV F-protein on the cells' surface. BEAS2B cells were grown in 96 well plates. […] Supernatant was aspirated and the cells were fixed with 4% formaldehyde (100 μL in PBS solution) for 20 min, washed 3 times with washing buffer (200 μL; PBS containing 0.05% Tween-20) and incubated with blocking solution (100 μL; 5% BSA in washing buffer) for 1 hr. […] No. ab43812, Abcam plc, Cambridge, UK) F-fusion protein antibody (50 μL; prepared at a 1:2000 dilution in 5% BSA/washing buffer). After washing, cells were incubated with an HRP-conjugated anti-mouse IgG antibody (50 μL prepared at a 1:2000 dilution in 5% BSA in PBS; lot 00095437, Cat. No. P0447, Dako UK Ltd, Cambridgeshire, UK) for 1 hr. […] The resultant signal was determined colourimetrically (OD: 450 nm with a reference wavelength of 655 nm) in a microplate reader (Multiskan FC®, ThermoFisher Scientific). […] After washing with PBS (200 μL) 2 times, 1% SDS (100 μL) was added to each well, and plates were shaken lightly for 1 hr prior to reading the absorbance at 595 nm. The measured OD450-655 readings were corrected for cell number by dividing the OD450-655 by the OD595 readings. The percentage inhibition for each well was calculated and the IC50 value derived from the concentration-response curve generated for each test compound.
structure (smiles),measurement,setting,value
"Cc1cnc(N2CC3(CCOCC3)C2)c(C(=O)Nc2ccc(C(=O)N3CCc4cc(C(=O)Nc5c(F)cccc5Cl)sc4-c4sccc43)cc2)c1 [Example 12, N-(2-chloro-6-fluorophenyl)-4-(4-(5-methyl-2-(7-oxa-2-azaspiro[3.5]nonan-2-yl)nicotinamido)benzoyl)-5,6-dihydro-4H-dithieno[3,2-b:2′,3′-d]azepine-8-carboxamide]",IC50,RSV A2 strain,0.14 nM
same,inhibition at 0.01 µg/mL,RSV A2 strain,84%
same,"Virus titre in apical wash, geometric mean",RSV A2 [1]; day 0,0 log PFU/mL
same,"Virus titre in apical wash, geometric mean",RSV A2 [1]; day 1,2.57 log PFU/mL
same,"Virus titre in apical wash, geometric mean",RSV A2 [1]; day 2,4.86 log PFU/mL
same,"Virus titre in apical wash, geometric mean",RSV A2 [1]; day 3,5.27 log PFU/mL
same,"Virus titre in apical wash, geometric mean",RSV A2 [1]; day 4,4.71 log PFU/mL
same,"Virus titre in apical wash, geometric mean",RSV A2 [1]; day 5,3.45 log PFU/mL
same,"Virus titre in apical wash, geometric mean",RSV A2 [1]; day 6,2.62 log PFU/mL
same,"Virus titre in apical wash, geometric mean",RSV A2 [1]; day 7,1.22 log PFU/mL
same,inhibition of virus titre in ALI culture (in words),RSV A2 [1],completely inhibited virus titre
same,CC50 at 5 days,[2],> 13500 nM
same,IC50,RSV B Washington strain,3.1 nM
same,inhibition at 1 µg/mL,RSV B Washington strain,97%
same,reduction of virus titre,hRSV/A/Long; intra-nasal dosing at 1 mg/ml,0.7 log
same,"Virus titre in lung, Geometric Mean","hRSV/A/Long; intranasal, 1.0 mg/mL","4.5 log, PFU/lung"
same,"Virus titre in lung, Median","hRSV/A/Long; intranasal, 1.0 mg/mL","4.5 log, PFU/lung"
"Cc1cnc(N2CC3(CCOCC3)C2)c(C(=O)Nc2ccc(C(=O)N3CCc4cc(C(=O)Nc5c(F)cccc5F)sc4-c4sccc43)cc2)c1 [Example 1, N-(2,6-Difluorophenyl)-4-(4-(5-methyl-2-(7-oxa-2-azaspiro[3.5]nonan-2-yl)nicotinamido)benzoyl)-5,6-dihydro-4H-dithieno[3,2-b:2′,3′-d]azepine-8-carboxamide]",IC50,RSV A2 strain,0.11 nM
same,inhibition at 0.01 µg/mL,RSV A2 strain,100%
same,"Virus titre in apical wash, geometric mean",RSV A2 [1]; day 0,0 log PFU/mL
same,"Virus titre in apical wash, geometric mean",RSV A2 [1]; day 1,2.14 log PFU/mL
same,"Virus titre in apical wash, geometric mean",RSV A2 [1]; day 2,3.05 log PFU/mL
same,"Virus titre in apical wash, geometric mean",RSV A2 [1]; day 3,5.18 log PFU/mL
same,"Virus titre in apical wash, geometric mean",RSV A2 [1]; day 4,3.55 log PFU/mL
same,"Virus titre in apical wash, geometric mean",RSV A2 [1]; day 5,3.68 log PFU/mL
same,"Virus titre in apical wash, geometric mean",RSV A2 [1]; day 6,2.24 log PFU/mL
same,"Virus titre in apical wash, geometric mean",RSV A2 [1]; day 7,1.71 log PFU/mL
same,inhibition of virus titre in ALI culture (in words),RSV A2 [1],completely inhibited virus titre
same,inhibition of RSV NS-1 gene transcripts (in words),RSV NS-1 gene,dose-dependent inhibition
same,RSV NS1 gene transcript % inhibition,RSV NS-1 gene; 0.33 mg/mL,−42%
same,"RSV NS1 gene transcript (/β-actin), Median",RSV NS-1 gene; 0.33 mg/mL,4.4
same,RSV NS1 gene transcript % inhibition,RSV NS-1 gene; 1.0 mg/mL,39%
same,"RSV NS1 gene transcript (/β-actin), Median",RSV NS-1 gene; 1.0 mg/mL,1.9
same,RSV NS1 gene transcript % inhibition,RSV NS-1 gene; 3.3 mg/mL,48%
same,"RSV NS1 gene transcript (/β-actin), Median",RSV NS-1 gene; 3.3 mg/mL,1.6
same,RSV NS1 gene transcript % inhibition,RSV NS-1 gene; 10 mg/mL,68%
same,"RSV NS1 gene transcript (/β-actin), Median",RSV NS-1 gene; 10 mg/mL,1.0
same,CC50 at 5 days,[2],> 13800 nM
same,inhibition of RANTES transcripts in lung (in words),RANTES gene,dose-dependent inhibition
same,RANTES gene transcript % Inhibition,RANTES gene; 0.33 mg/mL,−8%
same,"RANTES gene transcript (/β-actin), Median",RANTES gene; 0.33 mg/mL,3.9
same,RANTES gene transcript % Inhibition,RANTES gene; 1.0 mg/mL,36%
same,"RANTES gene transcript (/β-actin), Median",RANTES gene; 1.0 mg/mL,2.3
same,RANTES gene transcript % Inhibition,RANTES gene; 3.3 mg/mL,36%
same,"RANTES gene transcript (/β-actin), Median",RANTES gene; 3.3 mg/mL,2.3
same,RANTES gene transcript % Inhibition,RANTES gene; 10 mg/mL,61%
same,"RANTES gene transcript (/β-actin), Median",RANTES gene; 10 mg/mL,1.4
same,IC50,RSV B Washington strain,9 nM
same,inhibition at 0.1 µg/mL,"RSV B Washington strain; HEp-2, at 0.1 μg/mL",100%
same,IC50,RSV A2 [3],0.021 nM
same,IC90,RSV A2 [3],0.078 nM
same,"Virus titre in lung, Geometric Mean","hRSV/A/Long; intranasal, 0.1 mg/mL","5.4 log, PFU/lung"
same,"Virus titre in lung, Median","hRSV/A/Long; intranasal, 0.1 mg/mL","5.4 log, PFU/lung"
same,"Virus titre in lung, Geometric Mean","hRSV/A/Long; intranasal, 0.33 mg/mL","5.0 log, PFU/lung"
same,"Virus titre in lung, Median","hRSV/A/Long; intranasal, 0.33 mg/mL","5.0 log, PFU/lung"
same,"Virus titre in lung, Geometric Mean","hRSV/A/Long; intranasal, 1.0 mg/mL","4.3 log, PFU/lung"
same,"Virus titre in lung, Median","hRSV/A/Long; intranasal, 1.0 mg/mL","4.3 log, PFU/lung"
same,"Virus titre in lung, Geometric Mean","hRSV/A/Long; intranasal, 3.3 mg/mL","<2.3^2 log, PFU/lung"
same,"Virus titre in lung, Median","hRSV/A/Long; intranasal, 3.3 mg/mL","<2.3 log, PFU/lung"
same,inhibition of viral titre in lung homogenates (in words),"hRSV/A/Long; intranasal, RSV/A/Long infected cotton rats",potent dose-dependent inhibition of viral titre; also recorded: completely inhibited virus titre
"Cc1cnc(N2CCC3(CC2)COC3)c(C(=O)Nc2ccc(C(=O)N3CCc4cc(C(=O)Nc5c(F)cccc5F)sc4-c4sccc43)cc2)c1 [Example 30, N-(2,6-difluorophenyl)-4-(4-(5-methyl-2-(2-oxa-7-azaspiro[3.5]nonan-7-yl)nicotinamido)benzoyl)-5,6-dihydro-4H-dithieno[3,2-b:2′,3′-d]azepine-8-carboxamide]",IC50,RSV A2 strain,0.42 nM
same,inhibition at 0.01 µg/mL,RSV A2 strain,100%
same,CC50 at 5 days,[2],> 13800 nM
same,IC50,RSV B Washington strain,130 nM
same,inhibition at 1 µg/mL,RSV B Washington strain,100%
"O=C(Nc1c(F)cccc1F)c1cc2c(s1)-c1sccc1N(C(=O)c1ccc(NC(=O)c3cccnc3N3CCC4(CCOCC4)CC3)cc1)CC2 [Example 33, 4-(4-(2-(3-oxa-9-azaspiro[5.5]undecan-9-yl)nicotin amido)benzoyl)-N-(2,6-difluorophenyl)-5,6-dihydro-4H-dithieno[3,2-b:2′,3′-d]azepine-8-carboxamide]",IC50,RSV A2 strain,1.4 nM
same,inhibition at 0.01 µg/mL,RSV A2 strain,100%
same,CC50 at 5 days,[2],> 13500 nM
same,IC50,RSV B Washington strain,> 1350 nM
same,inhibition at 1 µg/mL,RSV B Washington strain,23%
"Cc1cnc(N2CC3(CCOCC3)C2)c(C(=O)Nc2ccc(C(=O)N3CCc4cc(C(=O)Nc5c(Cl)cccc5Cl)sc4-c4sccc43)cc2)c1 [Example 13, N-(2,6-dichlorophenyl)-4-(4-(5-methyl-2-(7-oxa-2-azaspiro [3.5]nonan-2-yl)nicotinamido)benzoyl)-5,6-dihydro-4H-dithieno[3,2-b:2′,3′-d]azepine-8-carboxamide]",IC50,RSV A2 strain,0.14 nM
same,inhibition at 0.01 µg/mL,RSV A2 strain,77%
same,CC50 at 5 days,[2],> 13200 nM
same,IC50,RSV B Washington strain,1.2 nM
same,inhibition at 1 µg/mL,RSV B Washington strain,80%
